Laboratory results from patent US9149038B2, “4-amino-6-(heterocyclic)picolinates and 6-amino-2-(heterocyclic)pyrimidine-4-carboxylates and their use as herbicides” (Dow AgroSciences LLC, priority 2013, dated 2015).
Read-outs that look alike come from different tables or passages of the source.

Key:
[1] = test system: Key Broadleaf Weed and Crop Species; assay: Post-Emergent Test II: postemergent herbicidal activity, visual rating after 14 d (Table 7); format: in vivo; details: post-emergence, 336 h; for pest or weed control at 35 g/ha: 35 g ai/ha; for pest or weed control at 70 g/ha: 70 g ai/ha; for pest or weed control at 140 g/ha: 140 g ai/ha
In short: (§1)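 Greenhouse plants at first or second true leaf stage sprayed with compound in acetone/DMSO-based spray solution with crop oil concentrate and Triton X-155 at 187 L/ha, tested at highest rate and ½× to 1/16× dilutions; solvent blank controls. Injury rated visually 0–100% versus untreated plants after 14 d.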

[2] = test system: Key Grass and Sedge Weeds as well as Grass Crops; assay: Post-Emergent Test II: postemergent herbicidal activity, visual rating after 14 d (Table 8); format: in vivo; details: post-emergence, 336 h; for pest or weed control at 35 g/ha: 35 g ai/ha; for pest or weed control at 70 g/ha: 70 g ai/ha; for pest or weed control at 140 g/ha: 140 g ai/ha
In short: as §1

[3] = lambsquarters (Chenopodium album), read-out: Visual Growth Reduction (%) 14 Days After Application CHEAL
[4] = oilseed rape, canola (Brassica napus), read-out: Visual Growth Reduction (%) 14 Days After Application BRSNN
[5] = redroot pigweed (Amaranthus retroflexus), read-out: Visual Growth Reduction (%) 14 Days After Application AMARE
[6] = sunflower (Helianthus annuus), read-out: Visual Growth Reduction (%) 14 Days After Application HELAN
[7] = velvetleaf (Abutilon theophrasti), read-out: Visual Growth Reduction (%) 14 Days After Application ABUTH
[8] = wild poinsettia (Euphorbia heterophylla), read-out: Visual Growth Reduction (%) 14 Days After Application EPHHL
[9] = barnyardgrass (Echinochloa crus-galli), read-out: Visual Growth Reduction (%) 14 Days After Application ECHCG
[10] = giant foxtail (Setaria faberi), read-out: Visual Growth Reduction (%) 14 Days After Application SETFA
[11] = maize, corn (Zea mays), read-out: Visual Growth Reduction (%) 14 Days After Application ZEAMX
[12] = rice (Oryza sativa), read-out: Visual Growth Reduction (%) 14 Days After Application ORYSA
[13] = wheat, spring (Triticum aestivum), read-out: Visual Growth Reduction (%) 14 Days After Application TRZAS
[14] = yellow nutsedge (Cyperus esculentus), read-out: Visual Growth Reduction (%) 14 Days After Application CYPES

## C=Cc1c(C(=O)OC)nc(-c2cc3c(cc2F)OC(F)(F)O3)c(F)c1N [Compound 27]
[1]; [3]
  pest or weed control at 35 g/ha: 0 to 29%
  pest or weed control at 70 g/ha: 0 to 29%
  pest or weed control at 140 g/ha: 0 to 29%
[1]; [4]
  pest or weed control at 35 g/ha: 0 to 29%
  pest or weed control at 70 g/ha: 0 to 29%
  pest or weed control at 140 g/ha: 0 to 29%
[1]; [5]
  pest or weed control at 35 g/ha: 0 to 29%
  pest or weed control at 70 g/ha: 0 to 29%
  pest or weed control at 140 g/ha: 0 to 29%
[1]; [6]
  pest or weed control at 35 g/ha: 30 to 44%
  pest or weed control at 70 g/ha: 75 to 84%
  pest or weed control at 140 g/ha: 85 to 94%
[1]; [7]
  pest or weed control at 35 g/ha: 0 to 29%
  pest or weed control at 70 g/ha: 0 to 29%
  pest or weed control at 140 g/ha: 0 to 29%
[1]; [8]
  pest or weed control at 35 g/ha: 0 to 29%
  pest or weed control at 70 g/ha: 0 to 29%
  pest or weed control at 140 g/ha: 0 to 29%
[2]; [9]
  pest or weed control at 35 g/ha: 0 to 29%
  pest or weed control at 70 g/ha: 0 to 29%
  pest or weed control at 140 g/ha: 0 to 29%
[2]; [10]
  pest or weed control at 35 g/ha: 0 to 29%
  pest or weed control at 70 g/ha: 0 to 29%
  pest or weed control at 140 g/ha: 0 to 29%
[2]; [11]
  pest or weed control at 35 g/ha: 0 to 29%
  pest or weed control at 70 g/ha: 0 to 29%
  pest or weed control at 140 g/ha: 30 to 44%
[2]; [12]
  pest or weed control at 35 g/ha: 0 to 29%
  pest or weed control at 70 g/ha: 0 to 29%
  pest or weed control at 140 g/ha: 0 to 29%
[2]; [13]
  pest or weed control at 35 g/ha: 0 to 29%
  pest or weed control at 70 g/ha: 0 to 29%
  pest or weed control at 140 g/ha: 0 to 29%
[2]; [14]
  pest or weed control at 35 g/ha: 0 to 29%
  pest or weed control at 70 g/ha: 0 to 29%
  pest or weed control at 140 g/ha: 0 to 29%

## COC(=O)c1nc(-c2cc3c(cc2F)OC(F)(F)O3)cc(N)c1Cl [Compound 32]
[1]; [3]
  pest or weed control at 35 g/ha: 95 to 100%
  pest or weed control at 70 g/ha: 95 to 100%
  pest or weed control at 140 g/ha: 95 to 100%
[1]; [4]
  pest or weed control at 35 g/ha: 60 to 74%
  pest or weed control at 70 g/ha: 60 to 74%
  pest or weed control at 140 g/ha: 75 to 84%
[1]; [5]
  pest or weed control at 35 g/ha: 0 to 29%
  pest or weed control at 70 g/ha: 45 to 59%
  pest or weed control at 140 g/ha: 75 to 84%
[1]; [6]
  pest or weed control at 35 g/ha: 75 to 84%
  pest or weed control at 70 g/ha: 75 to 84%
  pest or weed control at 140 g/ha: 75 to 84%
[1]; [7]
  pest or weed control at 35 g/ha: 85 to 94%
  pest or weed control at 70 g/ha: 85 to 94%
  pest or weed control at 140 g/ha: 85 to 94%
[1]; [8]
  pest or weed control at 35 g/ha: 0 to 29%
  pest or weed control at 70 g/ha: 60 to 74%
  pest or weed control at 140 g/ha: 60 to 74%
[2]; [9]
  pest or weed control at 35 g/ha: 60 to 74%
  pest or weed control at 70 g/ha: 75 to 84%
  pest or weed control at 140 g/ha: 75 to 84%
[2]; [11]
  pest or weed control at 35 g/ha: 60 to 74%
  pest or weed control at 70 g/ha: 60 to 74%
  pest or weed control at 140 g/ha: 75 to 84%
[2]; [12]
  pest or weed control at 35 g/ha: 0 to 29%
  pest or weed control at 70 g/ha: 0 to 29%
  pest or weed control at 140 g/ha: 0 to 29%
[2]; [13]
  pest or weed control at 35 g/ha: 45 to 59%
  pest or weed control at 70 g/ha: 60 to 74%
  pest or weed control at 140 g/ha: 60 to 74%
[2]; [14]
  pest or weed control at 35 g/ha: 95 to 100%
  pest or weed control at 70 g/ha: 95 to 100%
  pest or weed control at 140 g/ha: 95 to 100%

## COC(=O)c1nc(-c2cc3c(cc2F)OCO3)c(F)c(N)c1OC [Compound 26]
[1]; [3]
  pest or weed control at 35 g/ha: 0 to 29%
  pest or weed control at 70 g/ha: 0 to 29%
  pest or weed control at 140 g/ha: 0 to 29%
[1]; [4]
  pest or weed control at 35 g/ha: 45 to 59%
  pest or weed control at 70 g/ha: 60 to 74%
  pest or weed control at 140 g/ha: 75 to 84%
[1]; [5]
  pest or weed control at 35 g/ha: 0 to 29%
  pest or weed control at 70 g/ha: 0 to 29%
  pest or weed control at 140 g/ha: 85 to 94%
[1]; [6]
  pest or weed control at 35 g/ha: 85 to 94%
  pest or weed control at 70 g/ha: 95 to 100%
  pest or weed control at 140 g/ha: 95 to 100%
[1]; [7]
  pest or weed control at 35 g/ha: 0 to 29%
  pest or weed control at 70 g/ha: 0 to 29%
  pest or weed control at 140 g/ha: 0 to 29%
[1]; [8]
  pest or weed control at 35 g/ha: 95 to 100%
  pest or weed control at 70 g/ha: 95 to 100%
  pest or weed control at 140 g/ha: 95 to 100%
[2]; [9]
  pest or weed control at 35 g/ha: 45 to 59%
  pest or weed control at 70 g/ha: 60 to 74%
  pest or weed control at 140 g/ha: 75 to 84%
[2]; [10]
  pest or weed control at 35 g/ha: 0 to 29%
  pest or weed control at 70 g/ha: 0 to 29%
  pest or weed control at 140 g/ha: 0 to 29%
[2]; [11]
  pest or weed control at 35 g/ha: 45 to 59%
  pest or weed control at 70 g/ha: 45 to 59%
  pest or weed control at 140 g/ha: 60 to 74%
[2]; [12]
  pest or weed control at 35 g/ha: 0 to 29%
  pest or weed control at 70 g/ha: 0 to 29%
  pest or weed control at 140 g/ha: 0 to 29%
[2]; [13]
  pest or weed control at 35 g/ha: 0 to 29%
  pest or weed control at 70 g/ha: 0 to 29%
  pest or weed control at 140 g/ha: 0 to 29%
[2]; [14]
  pest or weed control at 35 g/ha: 0 to 29%
  pest or weed control at 70 g/ha: 0 to 29%
  pest or weed control at 140 g/ha: 0 to 29%
